This is an account of results in PubChem BioAssay AID256 (DTP/NCI, 2004).

The structures appear in SMILES notation. Inconclusive results and toxic doses are left out.

In this assay the test system is CD2F1 mice, L1210 leukemia ip, survival T/C. In words: NCI In Vivo Anticancer Drug Screen. Data for tumor model L1210 Leukemia (intraperitoneal) in CD2F1 (CDF1) mice. The settings on record: higher = longer survival. In short, it runs like this: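 Ratio T/C, where T is the treated-group value and C the vehicle-dosed control value, from mice implanted with a transplantable tumor.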

[1] abbreviates: endpoint: mean survival time, dose: 12.5 mg/kg/injection, schedule: Q01DX009 (ip), vehicle: saline.
[2] abbreviates: endpoint: mean survival time, dose: 100.0 mg/kg/injection, schedule: Q01DX001 (ip), vehicle: saline with Tween-80.
Setting [3] is: endpoint: mean survival time, dose: 200.0 mg/kg/injection, schedule: Q01DX001 (ip), vehicle: saline with Tween-80.
[4] abbreviates: endpoint: mean survival time, dose: 400.0 mg/kg/injection, schedule: Q01DX001 (ip), vehicle: saline with Tween-80.
Setting [5] is: endpoint: mean survival time, dose: 100.0 mg/kg/injection, schedule: Q01DX009 (ip), vehicle: saline with Tween-80.
[6] abbreviates: endpoint: mean survival time, dose: 200.0 mg/kg/injection, schedule: Q01DX009 (ip), vehicle: saline with Tween-80.
The mark [7] stands for this setting: endpoint: mean survival time, dose: 400.0 mg/kg/injection, schedule: Q01DX009 (ip), vehicle: saline with Tween-80.
Where [8] appears, read: endpoint: mean survival time, dose: 100.0 mg/kg/injection, schedule: Q01DX009 (ip), vehicle: other.
The mark [9] stands for this setting: endpoint: mean survival time, dose: 100.0 mg/kg/injection, schedule: Q01DX009 (ip), vehicle: saline.

Take `Cc1ccc(S(=O)(=O)SC(Cl)(Cl)Cl)cc1`: the T/C runs as follows: under setting [1], 94 % of control; (endpoint: mean survival time, dose: 25.0 mg/kg/injection, schedule: Q01DX009 (ip), vehicle: saline) 102 % of control.
For the compound `Brc1cnc(Br)s1`, the T/C by setting is: (endpoint: mean survival time, dose: 13.0 mg/kg/injection, schedule: Q04DX002 (ip), vehicle: Klucel (hydroxypropylcellulose) (HPC)) 92 % of control; (endpoint: mean survival time, dose: 20.0 mg/kg/injection, schedule: Q04DX002 (ip), vehicle: Klucel (hydroxypropylcellulose) (HPC)) 98 % of control; (endpoint: mean survival time, dose: 30.0 mg/kg/injection, schedule: Q04DX002 (ip), vehicle: Klucel (hydroxypropylcellulose) (HPC)) 98 % of control; (endpoint: mean survival time, dose: 45.0 mg/kg/injection, schedule: Q04DX002 (ip), vehicle: Klucel (hydroxypropylcellulose) (HPC)) 95 % of control.
As for `C[CH2][Sn]([CH2]C)([O]S(C)(=O)=O)[O]S(C)(=O)=O`, the T/C is, setting by setting: (endpoint: mean survival time, dose: 0.78 mg/kg/injection, schedule: Q01DX009 (ip), vehicle: saline) 101 % of control; (endpoint: mean survival time, dose: 1.56 mg/kg/injection, schedule: Q01DX009 (ip), vehicle: saline) 107 % of control; (endpoint: mean survival time, dose: 3.12 mg/kg/injection, schedule: Q01DX009 (ip), vehicle: saline) 107 % of control; (endpoint: mean survival time, dose: 6.25 mg/kg/injection, schedule: Q01DX009 (ip), vehicle: saline) 111 % of control; under setting [1], 114 % of control.
As to `O=C1OC(c2c[nH]c3ccccc23)c2ccccc21` (configuration not stated), the T/C reads like this: under setting [2], 94 % of control; under setting [3], 94 % of control; under setting [4], 87 % of control.
On to `CC(=O)/C=C/Sc1n[nH]c(=O)[nH]c1=O`, for which the T/C by setting is: (endpoint: mean survival time, dose: 12.5 mg/kg/injection, schedule: Q01DX005 (ip), vehicle: distilled water + Tween-80) 106 % of control; (endpoint: mean survival time, dose: 25.0 mg/kg/injection, schedule: Q01DX005 (ip), vehicle: distilled water + Tween-80) 101 % of control; (endpoint: mean survival time, dose: 50.0 mg/kg/injection, schedule: Q01DX005 (ip), vehicle: distilled water + Tween-80) 107 % of control; (endpoint: mean survival time, dose: 100.0 mg/kg/injection, schedule: Q01DX005 (ip), vehicle: distilled water + Tween-80) 98 % of control.
On to `CCCCCCCC(=O)Nc1cccc(C)c1C`, for which the T/C is, setting by setting: under setting [5], 105 % of control; under setting [6], 89 % of control; under setting [7], 104 % of control.
Regarding `COc1ccc(OC)c(C(=O)C=C(C(F)(F)F)C(F)(F)F)c1`, under setting [8], the T/C is 113 % of control.
`O=[N+]([O-])c1ccccc1NS(=O)(=O)c1ccccc1`: the T/C under setting [2] is 100 % of control, the T/C under setting [3] is 102 % of control and the T/C under setting [4] was 107 % of control.
As for `CCOc1c(Cl)cc(Cl)cc1C(c1ccccc1S(=O)(=O)O)c1cc(Cl)cc(Cl)c1OCC`, the T/C runs as follows: (endpoint: mean survival time, dose: 6.25 mg/kg/injection, schedule: Q01DX009 (ip), vehicle: saline sonified) 97 % of control; (endpoint: mean survival time, dose: 6.25 mg/kg/injection, schedule: Q04DX003 (ip), vehicle: saline sonified) 97 % of control; (endpoint: mean survival time, dose: 12.5 mg/kg/injection, schedule: Q01DX009 (ip), vehicle: saline sonified) 96 % of control; (endpoint: mean survival time, dose: 12.5 mg/kg/injection, schedule: Q04DX003 (ip), vehicle: saline sonified) 103 % of control; (endpoint: mean survival time, dose: 25.0 mg/kg/injection, schedule: Q01DX009 (ip), vehicle: saline sonified) 96 % of control; (endpoint: mean survival time, dose: 25.0 mg/kg/injection, schedule: Q04DX003 (ip), vehicle: saline sonified) 95 % of control.
As for `O=C1C=CC2OC(c3ccccc3)C(O)C2O1` (configuration not stated), the T/C (endpoint: median survival time, dose: 3.12 mg/kg/injection, schedule: Q01DX005 (ip), vehicle: DMSO) is 111 % of control; the T/C (endpoint: median survival time, dose: 6.25 mg/kg/injection, schedule: Q01DX005 (ip), vehicle: DMSO) is 101 % of control; the T/C (endpoint: median survival time, dose: 12.5 mg/kg/injection, schedule: Q01DX005 (ip), vehicle: DMSO) was 112 % of control; the T/C (endpoint: median survival time, dose: 25.0 mg/kg/injection, schedule: Q01DX005 (ip), vehicle: DMSO) was 115 % of control; the T/C (endpoint: median survival time, dose: 50.0 mg/kg/injection, schedule: Q01DX005 (ip), vehicle: DMSO) was 87 % of control.
For `CC(NC(=O)OCc1ccccc1)C(=O)NCCC(=O)OCc1ccccc1` (configuration not stated), the T/C is 93 % of control under setting [5], 95 % of control under setting [6] and 90 % of control under setting [7].
On to `CC(=O)NC(C)C1(O)CCCCC1` (configuration not stated), for which the T/C was 100 % of control (endpoint: mean survival time, dose: 100.0 mg/kg/injection, schedule: Q04DX003 (ip), vehicle: saline); 97 % of control (endpoint: mean survival time, dose: 200.0 mg/kg/injection, schedule: Q04DX003 (ip), vehicle: saline); 94 % of control (endpoint: mean survival time, dose: 400.0 mg/kg/injection, schedule: Q04DX003 (ip), vehicle: saline).
As for `C(=N\Nc1nc2ccccc2s1)/c1ccccc1`, the T/C by setting is: (endpoint: mean survival time, dose: 100.0 mg/kg/injection, schedule: Q04DX003 (ip), vehicle: Klucel (hydroxypropylcellulose) (HPC)) 100 % of control; (endpoint: mean survival time, dose: 200.0 mg/kg/injection, schedule: Q04DX003 (ip), vehicle: Klucel (hydroxypropylcellulose) (HPC)) 105 % of control; (endpoint: mean survival time, dose: 400.0 mg/kg/injection, schedule: Q04DX003 (ip), vehicle: Klucel (hydroxypropylcellulose) (HPC)) 92 % of control.
In the case of `COc1cc2c(cc1Oc1c(O)c(OC)cc3c1C(C)N(C)CC3)C(C)N(C)CC2` (configuration not stated), the T/C (endpoint: mean survival time, dose: 75.0 mg/kg/injection, schedule: Q01DX001 (ip), vehicle: saline) is 101 % of control.
`O=C(Nc1ccc(C2=NCCN2)cc1)c1ccc(NC(=O)c2ccc(C3=NCCN3)cc2)cc1`: the T/C is, setting by setting: (endpoint: median survival time, dose: 30.0 mg/kg/injection, schedule: Q01DX009 (ip), vehicle: saline) 166 % of control; (endpoint: median survival time, dose: 60.0 mg/kg/injection, schedule: Q01DX009 (ip), vehicle: saline) 244 % of control.
Take `CCCC(C)(CC)NC(=O)OCC` (configuration not stated): the T/C reads like this: (endpoint: mean survival time, dose: 100.0 mg/kg/injection, schedule: Q01DX001 (ip), vehicle: saline) 107 % of control; (endpoint: mean survival time, dose: 200.0 mg/kg/injection, schedule: Q01DX001 (ip), vehicle: saline) 111 % of control; (endpoint: mean survival time, dose: 400.0 mg/kg/injection, schedule: Q01DX001 (ip), vehicle: saline) 111 % of control.
Turning to `CCOC(=O)C1C(=O)N(Cc2ccccc2)C(=O)N1C` (configuration not stated), the T/C (endpoint: mean survival time, dose: 12.5 mg/kg/injection, schedule: Q01DX009 (ip), vehicle: other) was 98 % of control; the T/C (endpoint: mean survival time, dose: 25.0 mg/kg/injection, schedule: Q01DX009 (ip), vehicle: other) was 104 % of control; the T/C (endpoint: mean survival time, dose: 50.0 mg/kg/injection, schedule: Q01DX009 (ip), vehicle: other) is 100 % of control; the T/C under setting [8] was 100 % of control; the T/C (endpoint: mean survival time, dose: 200.0 mg/kg/injection, schedule: Q01DX009 (ip), vehicle: other) is 100 % of control.
`CCOC(=O)Nc1cc(NCCCCc2ccccc2)c2[nH]cnc2n1`: the T/C runs as follows: (endpoint: mean survival time, dose: 100.0 mg/kg/injection, schedule: Q01DX001 (ip), vehicle: Klucel (hydroxypropylcellulose) (HPC)) 95 % of control; (endpoint: mean survival time, dose: 200.0 mg/kg/injection, schedule: Q01DX001 (ip), vehicle: Klucel (hydroxypropylcellulose) (HPC)) 93 % of control; (endpoint: mean survival time, dose: 400.0 mg/kg/injection, schedule: Q01DX001 (ip), vehicle: Klucel (hydroxypropylcellulose) (HPC)) 102 % of control.
Regarding `COP(=O)(CC1CO1)OC` (configuration not stated), the T/C by setting is: (endpoint: mean survival time, dose: 50.0 mg/kg/injection, schedule: Q01DX009 (ip), vehicle: saline) 103 % of control; under setting [9], 106 % of control; (endpoint: mean survival time, dose: 200.0 mg/kg/injection, schedule: Q01DX009 (ip), vehicle: saline) 98 % of control.
Regarding `c1ccc(CSc2ncnc3nc[nH]c23)nc1`, the T/C (endpoint: mean survival time, dose: 133.0 mg/kg/injection, schedule: Q04DX003 (ip), vehicle: saline with Tween-80) was 117 % of control and the T/C (endpoint: mean survival time, dose: 300.0 mg/kg/injection, schedule: Q04DX003 (ip), vehicle: saline with Tween-80) was 102 % of control.
For the compound `CCCCCOC(=O)CCCc1ccc(N(CCCl)CCCl)cc1`, the T/C is, setting by setting: under setting [1], 118 % of control; under setting [9], 88 % of control.
On to `CCCCCCCCCCCC(CCCCCCCCCC)CCCCCCCCCC`, for which the T/C was 101 % of control (endpoint: mean survival time, dose: 100.0 mg/kg/injection, schedule: Q01DX001 (ip), vehicle: saline sonified); 104 % of control (endpoint: mean survival time, dose: 200.0 mg/kg/injection, schedule: Q01DX001 (ip), vehicle: saline sonified); 108 % of control (endpoint: mean survival time, dose: 400.0 mg/kg/injection, schedule: Q01DX001 (ip), vehicle: saline sonified).
`Nc1nc(S)c(N)c(=S)[nH]1`: the T/C (endpoint: mean survival time, dose: 75.0 mg/kg/injection, schedule: Q01DX001 (ip), vehicle: carboxymethylcellulose (CMC)) is 102 % of control.
As to `COC1OC(COC(=O)c2ccc([N+](=O)[O-])cc2)C(SC#N)C1O` (configuration not stated), the T/C (endpoint: mean survival time, dose: 150.0 mg/kg/injection, schedule: Q01DX001 (ip), vehicle: saline) was 93 % of control.
Turning to `C[C@H]1CP(c2ccccc2)(c2ccccc2)(c2ccccc2)O[C@@]1(C(=O)c1ccccc1)c1ccccc1`, under setting [3], the T/C was 91 % of control.
